The record followed here is US20250235403A1, “COMPOSITIONS AND METHODS OF THE DELIVERY OF ACTIVE AGENTS INCLUDING NUCLEIC ACIDS” (Ohio State Innovation Foundation, priority 2021, published 2025).

The structures appear in SMILES notation.

The nature of data set [1]: Saturated solubility study. It counts as physicochemical. The following applies: in squalene-based NE compared with PBS solvent. Here is the method:
In the saturated solubility study, R848 or IVM were dissolved in PBS or formulated in NE at 2 mg/ml and incubated at room temperature for 24 hours. Insoluble solid drugs were pelleted down by centrifugation. Supernatants were collected for concentration analysis. R848 concentrations were quantified by UV-Vis spectrometry at 320 nm using a NanoDrop 2000 spectrophotometer. IVM concentrations were quantified by high-performance liquid chromatography (HPLC) using an isocratic mobile phase composed of water/methanol/acetonitrile (8:36:56, v/v/v), an C18 column (Kromasil 150-C-18, 4.6×150 mm), and PDA detection at 230 nm.

A further data set has as its system MC38 cells. Put plainly: In vitro gene regulation by R848 NE, IVM NE, R848-IVM NE. It counts as cell-based, murine. The following applies: 8 μM, 24 hours.
A short description of data set [2]: Evaluation of squalene as a fusogenic oil (OD500/OD600 of anionic nanoemulsions). The class given is physicochemical. To be noted: oil/DOPC/CHEMS nanoemulsions; versus medium-chain and long-chain triglyceride. As for the experimental part:
To compare the fusogenicities of different oils, simple anionic nanoemulsions were prepared. The compositions evaluated were: oil/DOPC/CHEMS (30:40:40 mole/mole). Oil was selected from squalene, medium-chain triglyceride (MCT) from Abitec (Captex 300), long-chain triglyceride (LCT, soybean oil from Sigma-Aldrich). DOPC: dioleoylphosphatidylcholine, CHEMS: cholesterol hemisuccinate. The various formulations were prepared at pH 8.0 in PBS and then diluted into various buffers with different pH values and incubated for 5 min at room temperature prior to OD measurement. OD500 and OD600 were measured to indicate particle size, with larger particle size indicating increased fusogenicity.

Procedure for MC38 cells: MC38 cells were seeded at 3×10^5 cells/well in 6-well plates 24 hours before treatments. […] R848 and IVM were both treated at 8 μM, either as free drug solution or in squalene NE. Total RNA was extracted using TRI reagent (Zymo Research) per manufacturer protocol. cDNA was prepared by high-capacity cDNA reverse transcription kit (Invitrogen, Waltham, MA, USA), and real-time qPCR (RT-qPCR) was done using SsoAdvanced™ Universal SYBRR Green Supermix (Bio-Rad Laboratories, Hercules, CA) on a QuantStudio 7 Flex Real-time PCR System. RT-qPCR primers for murine Calreticulin, Hmgb1, Lc3b, and Actb were purchased from Sigma-Aldrich. Actb was selected as the housekeeping gene control. The relative amount of RNA level was calculated and compared according to the 2−ΔΔCt method.

On to `CC[C@H](C)[C@H]1O[C@]2(CC[C@@H]1C)C[C@@H]1C[C@@H](C/C=C(\C)[C@@H](O[C@H]3C[C@H](OC)[C@@H](O[C@H]4C[C@H](OC)[C@@H](O)[C@H](C)O4)[C@H](C)O3)[C@@H](C)/C=C/C=C3\CO[C@@H]4[C@H](O)C(C)=C[C@@H](C(=O)O1)[C@]34O)O2` [IVM, Ivermectin], for which the increase of solubility in data set [1] is on record as 100 fold. In the data set with MC38 cells, the “Calreticulin mRNA level” value is “did not show significant Calreticulin regulation”.

In data set [1], `CCOCc1nc2c(N)nc3ccccc3c2n1CC(C)(C)O` [R848, Resiquimod] showed an increase of solubility of 2 fold.

`CC(C)=CCC/C(C)=C/CC/C(C)=C/CC/C=C(\C)CC/C=C(\C)CCC=C(C)C` [squalene]: the fusogenicity entry in data set [2] is “improved fusogenicity”.
